Laboratory results taken from patent US9181176B2, “7-[3,5-dihydroxy-2-(3-hydroxy-5-phenyl-pent-1-enyl)-cyclopentyl]-N-ethyl-hept-5-enamide (bimatoprost) in crystalline form II, methods for preparation, and methods for use thereof” (Allergan, Inc., priority 2009, dated 2015).
Blank lines part the entries; values can stand above or below the compound they belong to.

Key:
Format in all cases: physicochemical
[1] = Determination of the aqueous solubility of polymorph II; details: 0.4% suspension rotated continuously over a weekend; supernatants assayed by HPLC
Description: The aqueous solubility of polymorph II was determined by preparing in duplicate a 0.4% suspension of a formal stability sample (lot X10510 stored at 25° C./60% RH for 23 months, confirmed as polymorph II). Temperature Program 1 (hold for 1.0 minute at 30° C. and then heat from 30° C. to 85° C. at 2.0° C. per minute), was used to test the 23-month stability sample by DSC to reconfirm the presence of only polymorph II (which was, indeed, the case). The suspension was allowed to rotate continuously over a weekend. The supernatants were assayed by HPLC using X11192 Secondary Reference Standard to determine the drug contents. […] Since the active pharmaceutical ingredient will be used in a formulation at a concentration that is only one-tenth of the aqueous solubility of the active pharmaceutical ingredient (as either polymorph), there is no effect of crystal habit on product characteristics or manufacturing process.

[2] = Solid-state polymorphic transformation in samples of the formal stability program (DSC, IR); details: stored 18 months at 25° C./60% RH
Description: The colored particle was separated from the white drug substance, and DSC was performed on both. In order to determine whether bimatoprost spontaneously converts from polymorph I to polymorph II at elevated temperatures (i.e. higher than the prescribed storage temperature), a number of other lots in the formal stability program were also analyzed by DSC. All the formal stability samples tested consisted of polymorph II. Since the control (frozen) samples from the same lots were previously analyzed by DSC with the results showing that none of them contained polymorph II, there is a clear indication that a polymorphic transformation had occurred under the stability conditions employed.

[3] = Solid-state polymorphic transformation in laboratory stress study samples (DSC); details: 40° C., 70-day time-point
Description: Two Bimatoprost lots (X11192 and X10510) were subjected to a variety of experimental stress conditions at 40° C. (see Table 6). The experimental design included ambient air and argon headspaces, exposure to fluorescent light, and different surface-to-volume ratios. The 70-day time-point samples were analyzed by HPLC and DSC.

aqueous solubility [1]: 0.3 % w/w
Structure (SMILES): CCNC(=O)CCCC=CCC1C(O)CC(O)C1C=CC(O)CCc1ccccc1 (stereo not shown) [polymorph II, 7-[3,5-dihydroxy-2-(3-hydroxy-5-phenyl-pent-1-enyl)-cyclopentyl]-N-ethyl-hept-5-enamide]

Structure (SMILES): CCNC(=O)CCC/C=C\C[C@@H]1[C@@H](/C=C/[C@@H](O)CCc2ccccc2)[C@H](O)C[C@@H]1O [X10510, bimatoprost]
polymorphic form after storage (DSC and IR) [2]: yielded substantial amounts of polymorph II | polymorphic form after stress (DSC) ([3]; ambient air headspace, regardless of light exposure): partial morphological conversion in which both polymorphs I and II were present simultaneously

polymorphic form after stress (DSC) ([3]; air or argon headspace, light or dark): polymorph I
Structure (SMILES): CCNC(=O)CCC/C=C\C[C@@H]1[C@@H](/C=C/[C@@H](O)CCc2ccccc2)[C@H](O)C[C@@H]1O [X11192, bimatoprost]
